From patent publication US8679461B2, “Use of hesperetin for enhancing the sweet taste” (Symrise AG, priority 2005, dated 2014)
Several values for one entry are separate records, joined by “and”; a condition that tells them apart may be missing. Identical values can stand only once.

Key:
[1] = system: sweet impression of a 5% by weight sucrose-containing solution; assay: Enhancing the sweet impression of a sugar solution, rating by a group of experts (Application Example 1); type: in vivo; conditions: for total number of tasters against the number of tasters who found the test solution sweeter / % Enhancement of the sweet impression: 5% sucrose + 100 ppm substance against 5% sucrose solution; for % Enhancement of the sweet impression: calculated from mean ratings; for Sweet impression (1-10) b) with: 5% sucrose + 100 ppm substance, rating 0 [not sweet] to 10 [extremely sweet], mean ± standard deviation
Experimental: In order to quantify the enhancement of a sweet impression owing to the addition of hesperetin, the respective sweetness of a 5% by weight sucrose-containing solution and of samples which contained 5% sucrose and 100 ppm hesperetin (source: Sigma-Aldrich, Order.-No. H 4125, CA-No. 41001-90-5) or a quantity of comparative hydroxyflavanones naringenin, eriodictyol, homoeriodictyol or eriodictyol-7-methylether (cf. US 2002 188,019) was determined by a group of experts (rating0 [not sweet] to 10 [extremely sweet]). Evaluation took place as a calculation of the enhancement (in %) of the sweet impression from the mean values of the assessments of the sucrose solution or the sucrose and compound 2-containing solution.

[2] = system: sweet impression of sucrose-containing solutions; assay: Sweet impression of a sugar-reduced test solution, rating by a group of experts (Application Example 2); type: in vivo
Experimental: In order to quantify the retention of a sweet impression when replacing a sucrose content with a small quantity of hesperetin, the respective sweetness of (a) a 6% by weight sucrose-containing solution against a 5% by weight sucrose-containing solution and (b) a 6% by weight sucrose-containing solution against a solution which contained 5% sucrose and a quantity of hesperetin (source: Sigma-Aldrich, Order No. H 4125, CA-No. 41001-90-5) was determined by a group of experts (rating 0 [not sweet] to 10 [extremely sweet]). Evaluation took place as a calculation of the enhancement (in %) of the sweet impression from the mean values of the assessments of the 6% or 5% sucrose-containing solution or 5% sucrose and 100 ppm hesperetin-containing solution.

sweet taste = conditions: concentration of 200 ppm; cited from earlier work

SMILES	total number of tasters against the number of tasters who found the test solution sweeter [1]	% Enhancement of the sweet impression [1]	Sweet impression (1-10) b) with [1]	other results
O=C1C[C@@H](c2ccc(O)cc2)Oc2cc(O)cc(O)c21 [Naringenin]	19/12	+7.5%	6.0 ± 1.7	
COc1cc([C@@H]2CC(=O)c3c(O)cc(O)cc3O2)ccc1O [Homoeriodictyol]	19/13	+6.4%	6.1 ± 1.5	
COc1cc(O)c2c(c1)OC(c1ccc(O)c(O)c1)CC2=O (stereo not drawn) [Eriodictyol-7-methylether]	18/13	+15.9%	5.7 ± 1.9	
COc1ccc(C2CC(=O)c3c(O)cc(O)cc3O2)cc1O (stereo not drawn) [Hesperetin, 4′-methoxy-3′,5,7-trihydroxyflavanone]	16/14	+41%	7.1 ± 2.4	total number of tasters against the number of tasters who found the test solution sweeter ([2]; test (b): 5% sucrose + 100 ppm hesperetin against 6% sucrose): 15/12; % Enhancement of the sweet impression ([2]; test (b): 5% sucrose + 100 ppm hesperetin against 6% sucrose solution): +21%; Sweet impression (1-10) 5% sucrose + 100 ppm hesperetin ([2]; test (b), mean ± standard deviation): 7.9 ± 1.5; sweet-enhancing effect (in words) ([1]; in contrast to naringenin, homoeriodictyol, eriodictyol and eriodictyol-7-methylether, cf. Example 1): clear and significant sweet-enhancing effect; inherent taste (in words) (sweet taste): very weak sweet taste
O=C1C[C@@H](c2ccc(O)c(O)c2)Oc2cc(O)cc(O)c21 [Eriodictyol]	12/2	−16.7%	5.4 ± 1.2	
OC[C@H]1O[C@@](CO)(O[C@H]2O[C@H](CO)[C@@H](O)[C@H](O)[C@H]2O)[C@@H](O)[C@@H]1O [sucrose]				Sweet impression (1-10) 5% sucrose ([2]; 5% by weight sucrose solution, test (a), mean ± standard deviation): 5.0 ± 1.6; Sweet impression (1-10) 6% sucrose ([2]; 6% by weight sucrose solution, reference in tests (a) and (b), mean ± standard deviation): 6.5 ± 1.5 and 6.9 ± 1.6; total number of tasters against the number of tasters who found the test solution sweeter ([2]; test (a): 5% sucrose against 6% sucrose): 15/0; % Enhancement of the sweet impression ([2]; test (a): 5% sucrose solution against 6% sucrose solution): −30%
